In BindingDB's records for doi:10.1021/jm8005838 (Cephalon, 2008):

Target: Vascular endothelial growth factor receptor 2 (Homo sapiens, UniProt P35968)
Test: VEGF-R2 Receptor-Linked Tyrosine Kinase Assay
Protocol: Compounds were evaluated for their ability to inhibit the kinase activity using an ELISA-based assay. The 96-well microtiter plate is coated with substrate solution. The reaction is initiated by adding recombinant human VEGF-R2 to reaction mixture containing inhibitor compound. After the incubation, the detection antibody, Eu-N1 antiphosphotyrosine (PT66) antibody, was added, and the fluorescence of the resulting solution was measured using the Victor Multilabel Counter.

Vascular endothelial growth factor receptor 2, sequence (P35968 whole entry): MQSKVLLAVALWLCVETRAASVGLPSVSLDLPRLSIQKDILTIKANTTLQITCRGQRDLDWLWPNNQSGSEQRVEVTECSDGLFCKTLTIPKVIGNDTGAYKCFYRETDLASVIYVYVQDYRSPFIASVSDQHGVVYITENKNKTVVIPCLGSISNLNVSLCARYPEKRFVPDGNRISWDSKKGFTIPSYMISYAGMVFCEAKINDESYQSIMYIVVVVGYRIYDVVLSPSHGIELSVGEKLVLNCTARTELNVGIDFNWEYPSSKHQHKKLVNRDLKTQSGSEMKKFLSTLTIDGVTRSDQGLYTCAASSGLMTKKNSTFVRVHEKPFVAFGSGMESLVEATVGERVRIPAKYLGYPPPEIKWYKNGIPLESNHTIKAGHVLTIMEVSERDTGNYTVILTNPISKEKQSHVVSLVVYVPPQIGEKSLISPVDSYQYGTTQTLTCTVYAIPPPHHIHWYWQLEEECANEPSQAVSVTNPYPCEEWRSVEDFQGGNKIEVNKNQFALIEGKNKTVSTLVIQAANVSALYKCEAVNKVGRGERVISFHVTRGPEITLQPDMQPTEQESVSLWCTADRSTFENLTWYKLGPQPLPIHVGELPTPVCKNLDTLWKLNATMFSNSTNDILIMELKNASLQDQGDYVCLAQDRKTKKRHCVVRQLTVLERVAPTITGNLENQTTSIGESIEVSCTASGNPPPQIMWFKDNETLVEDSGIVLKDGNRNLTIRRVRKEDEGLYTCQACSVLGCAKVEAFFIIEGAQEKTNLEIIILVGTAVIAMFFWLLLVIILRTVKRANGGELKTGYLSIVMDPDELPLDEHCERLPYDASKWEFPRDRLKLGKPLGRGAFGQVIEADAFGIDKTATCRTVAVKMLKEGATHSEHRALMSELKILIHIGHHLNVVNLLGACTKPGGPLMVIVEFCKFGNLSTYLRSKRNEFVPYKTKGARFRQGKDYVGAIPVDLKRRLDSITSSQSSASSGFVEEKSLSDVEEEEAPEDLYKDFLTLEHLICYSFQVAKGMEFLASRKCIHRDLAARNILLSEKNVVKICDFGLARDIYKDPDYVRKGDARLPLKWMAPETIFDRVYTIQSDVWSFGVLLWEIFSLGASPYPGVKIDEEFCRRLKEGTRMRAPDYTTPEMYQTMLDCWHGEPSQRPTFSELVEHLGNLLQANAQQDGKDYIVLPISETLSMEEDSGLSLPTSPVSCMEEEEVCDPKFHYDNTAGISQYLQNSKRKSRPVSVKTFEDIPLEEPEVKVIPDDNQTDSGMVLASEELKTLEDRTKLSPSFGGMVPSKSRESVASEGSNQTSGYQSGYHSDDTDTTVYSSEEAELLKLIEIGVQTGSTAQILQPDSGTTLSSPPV

| Compound | IC50 [µM] |
| --- | --- |
| CC(C)Oc1ccc2c(c1)CCc1c-2c2c(c3c4ccccc4n(CCO)c13)CNC2=O [3-(2-hydroxyethyl)-20-(propan-2-yloxy)-3,13-diazahexacyclo[14.8.0.0^{2,10}.0^{4,9}.0^{11,15}.0^{17,22}]tetracosa-1(16),2(10),4(9),5,7,11(15),17(22),18,20-nonaen-14-one] | 3.38 |
| COc1ccc2c(c1)CCc1c-2c2c(c3c4ccccc4n(CCO)c13)CNC2=O [3-(2-hydroxyethyl)-20-methoxy-3,13-diazahexacyclo[14.8.0.0^{2,10}.0^{4,9}.0^{11,15}.0^{17,22}]tetracosa-1(16),2(10),4(9),5,7,11(15),17(22),18,20-nonaen-14-one] | 4.72 |
